ChEMBL document CHEMBL1151852, “Tetranortriterpenoids from the Leaves of Cipadessa cinerascens” (2009)

System: P388
Assay: Cytotoxicity against mouse P388 cells after 72 hrs by MTT assay
Format: functional
Conditions: P388, 72 h, read-out: ED50 (the source's name)

Q: `C=C1[C@]2(OC(C)=O)C[C@@]3(C)[C@H](c4ccoc4)OC(=O)C[C@]13O[C@H]1[C@@H](OC(C)=O)[C@@H](OC(C)=O)C(C)(C)[C@H](CC(=O)OC)[C@@]1(C)C2=O` [CINERACIPADESIN F] was tested. Which EC50 did it give?
A: > 5 µg/mL

Q: `C=C1[C@@H]2[C@H](OC(C)=O)C[C@@]3(C)[C@H](c4ccoc4)OC(=O)C[C@]13O[C@H]1[C@@H](OC(C)=O)[C@@H](OC(C)=O)C(C)(C)[C@H](CC(=O)OC)[C@@]21C` [CINERACIPADESIN E] was tested. Which EC50 did it give?
A: > 5 µg/mL

Q: Which EC50 does the source give for `C=C1[C@]2(O)C(=O)C[C@@]3(C)[C@H](c4ccoc4)OC(=O)C[C@]13O[C@H]1C[C@@H](OC(C)=O)C(C)(C)[C@H](CC(=O)OC)[C@]12C` [CINERACIPADESIN C] here?
A: > 5 µg/mL

Q: Which EC50 does the source give for `C=C1[C@@]23CC(=O)O[C@@H](c4ccoc4)[C@]2(C)C[C@@H](O)[C@]1(O)[C@@]1(C)[C@@H](O3)[C@@H](OC(C)=O)[C@@H](OC(C)=O)C(C)(C)[C@@H]1CC(=O)OC` [CINERACIPADESIN B] here?
A: > 5 µg/mL

Q: `C=C1[C@@H]2[C@H](OC(C)=O)C[C@@]3(C)[C@H](c4ccoc4)OC(=O)C[C@]13O[C@H]1C[C@@H](OC(C)=O)C(C)(C)[C@H](CC(=O)OC)[C@]12C` [CINERACIPADESIN D] was tested. Which EC50 did it give?
A: > 5 µg/mL

Q: `C=C1[C@@H]2CC[C@@]3(C)[C@H](c4ccoc4)OC(=O)C[C@]13O[C@H]1[C@H](OC(C)=O)[C@H](OC(C)=O)C(C)(C)[C@H](CC(=O)OC)[C@@]21C` was tested. Which EC50 did it give?
A: > 5 µg/mL

Q: Which EC50 does the source give for `CC[C@@H](C)C(=O)O[C@@H]1[C@H]2C(=O)[C@@](C)([C@@H](CC(=O)OC)C1(C)C)[C@@]13O[C@@H]1C[C@@]1(C)[C@H](c4ccoc4)OC(=O)C[C@@H]1[C@]31O[C@H]21` [CINERACIPADESIN A] here?
A: > 5 µg/mL
